Measured values: publication PMC2946308, “Sialic acid transport and catabolism are cooperatively regulated by SiaR and CRP in nontypeable Haemophilus influenzae” (BMC Microbiology, 2010)

Molecular target: T1, SiaR (Haemophilus influenzae, UniProt P44540)
T1 construct: gene HI_0143; C-terminal His-tag, plasmid pJJ185 (earlier work), expressed in E. coli, tag not reported cut
Assay: EMSA with nan-siaPT intergenic DNA probe
Format: binding
Settings: 100 μM GlcN-6P; co-activator; serial dilutions of SiaR; 15 nM DNA probe; pH 7.4, room temperature

T1 sequence (P44540 whole entry): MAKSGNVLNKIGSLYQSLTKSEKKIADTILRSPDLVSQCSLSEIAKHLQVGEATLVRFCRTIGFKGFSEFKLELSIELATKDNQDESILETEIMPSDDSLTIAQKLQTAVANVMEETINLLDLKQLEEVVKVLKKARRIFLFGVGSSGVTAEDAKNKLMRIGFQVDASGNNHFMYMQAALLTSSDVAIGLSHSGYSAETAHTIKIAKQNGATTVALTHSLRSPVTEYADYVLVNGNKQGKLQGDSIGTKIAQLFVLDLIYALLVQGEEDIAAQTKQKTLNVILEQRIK

## N[C@H]1C(O)O[C@H](COP(=O)(O)O)[C@@H](O)[C@@H]1O (stereo partly shown) [GlcN-6P]
  EMSA with nan-siaPT intergenic DNA probe: SiaR bound the probe and GlcN-6P slightly increased the binding affinity
